Assay type in all cases: cell-based
One assay has as its target RXFP4 R208K (Homo sapiens, UniProt Q8TDU9, R208K). Briefly: cAMP accumulation, RXFP4 R208K. The following applies: HEK293T. The source says:
The full-length human RXFP4 (NCBI Reference Sequence: NM_181885.3) was cloned into a modified pFastBac vector (Invitrogen) with HA signal peptide to enhance receptor expression, followed by a 10× histidine tag and BRIL insertion at the N terminus. LgBiT subunit (Promega) was fused at the C terminus of RXFP4 connected by a 15-amino acid polypeptide linker. […] The engineered human Gαi2, Gβ1, bovine Gγ2, and scFv16 were cloned into the pFastBac vector (Invitrogen), respectively. For cAMP accumulation assay, human RXFP4 and RXFP3 (NCBI Reference Sequence: NM_016568.3) were cloned into pCMV6 constructs (OriGene Technologies). The mutant receptors were modified by site-directed mutagenesis in the setting of the WT constructs, with the primers designed by QuikChange Primer Design [QuickChange Primer Design (http://agilent.com.cn)] and carried out using Phanta Max Master (Vazyme). N-terminal Flag tag was added to both WT and mutant receptors for surface expression measurement. […]
(§1) CHO-K1 (ATCC, Cat#CCL-61) cells stably expressing human RXFP4 (hRXFP4-CHO) or RXFP3 (hRXFP3-CHO) were maintained in DMEM/F12 (Gibco) supplemented with 10% (v/v) fetal bovine serum (FBS) and 2 mM L-glutamine. […] Following 24 h culturing, the transfected cells were ready for detection.
(§2) Ligands were verified for their bioactivity in the beginning in hRXFP4-CHO, which were ready for use after 24 h culturing. […] The time-resolved fluorescence resonance energy transfer (TR-FRET) signals were detected by an EnVision multilabel plate reader (PerkinElmer) with the emission window ratio of 665 nm over 620 nm under 320 nm excitation. […]
Inhibition of forskolin-induced cAMP accumulation was performed in HEK293T cells transiently transfected with WT and mutant receptors. All the mutant constructs were modified by single-point mutation in the setting of the WT receptor. cAMP accumulation data were analyzed using a three-parameter logistic equation to determine pEC50 and Emax values. Emax values for mutants are defined as the window between the maximal response and vehicle control (no ligand) and expressed as a percentage of the WT. […]
(cAMP levels reflect the balance of adenylyl cyclase and phosphodiesterase activity.)

Another assay concerns human RXFP3. Briefly: inhibition of forskolin-induced cAMP accumulation, WT RXFP3 (hRXFP3-CHO). As to conditions: binding and cAMP assays, Fig. 3e, Supplementary Fig. 2e–g. The protocol: CHO-K1 (ATCC, Cat#CCL-61) cells stably expressing human RXFP4 (hRXFP4-CHO) or RXFP3 (hRXFP3-CHO) were maintained in DMEM/F12 (Gibco) supplemented with 10% (v/v) fetal bovine serum (FBS) and 2 mM L-glutamine. Human embryonic kidney 293 T cells containing SV40 large T-antigen (HEK293T, ATCC, Cat#64127316) were maintained in DMEM (Gibco) supplemented with 10% (v/v) FBS, 1 mM sodium pyruvate (Gibco), 100 units/mL penicillin and 100 μg/mL streptomycin at 37 °C in 5% CO2. For cAMP assays in mutants, HEK293T cells were seeded onto 6-well cell culture plates at a density of 7 × 10^5 cells per well. After overnight incubation, cells were transfected with WT or mutant receptors using Lipofectamine 3000 transfection reagent (Invitrogen). Following 24 h culturing, the transfected cells were ready for detection.
as §2
All functional study data were analyzed using GraphPad Prism 8.3 (GraphPad Software) and presented as means ± S.E.M. from at least three independent experiments. Dose-response curves were evaluated with a three-parameter logistic equation. […]

A further assay concerns the target T1, RXFP4 D104A (Homo sapiens, UniProt Q8TDU9, D104A).
T1 construct: RXFP4(1-374)-; expressed in transfected cells; host or cells: HEK293T, transient (pCMV6)
Briefly: cAMP accumulation, RXFP4 D104A.
Source text: (§3) The full-length human RXFP4 (NCBI Reference Sequence: NM_181885.3) was cloned into a modified pFastBac vector (Invitrogen) with HA signal peptide to enhance receptor expression, followed by a 10× histidine tag and BRIL insertion at the N terminus. LgBiT subunit (Promega) was fused at the C terminus of RXFP4 connected by a 15-amino acid polypeptide linker. […] The engineered human Gαi2, Gβ1, bovine Gγ2, and scFv16 were cloned into the pFastBac vector (Invitrogen), respectively. For cAMP accumulation assay, human RXFP4 and RXFP3 (NCBI Reference Sequence: NM_016568.3) were cloned into pCMV6 constructs (OriGene Technologies). […]
as §1, §2

Another assay addresses T2, RXFP4 V122S (Homo sapiens, UniProt Q8TDU9, V122S).
T2 construct: RXFP4(1-374)-; expressed in transfected cells; host or cells: HEK293T, transient (pCMV6)
Briefly: cAMP accumulation, RXFP4 V122S. As to conditions: HEK293T, mean ± S.E.M.
Source text: as §3, §1, §2

In a further assay the target is T3, RXFP4 L118S (Homo sapiens, UniProt Q8TDU9, L118S).
T3 construct: RXFP4(1-374)-; expressed in transfected cells; host or cells: HEK293T, transient (pCMV6)
T3 sequence (Q8TDU9 whole entry L118S): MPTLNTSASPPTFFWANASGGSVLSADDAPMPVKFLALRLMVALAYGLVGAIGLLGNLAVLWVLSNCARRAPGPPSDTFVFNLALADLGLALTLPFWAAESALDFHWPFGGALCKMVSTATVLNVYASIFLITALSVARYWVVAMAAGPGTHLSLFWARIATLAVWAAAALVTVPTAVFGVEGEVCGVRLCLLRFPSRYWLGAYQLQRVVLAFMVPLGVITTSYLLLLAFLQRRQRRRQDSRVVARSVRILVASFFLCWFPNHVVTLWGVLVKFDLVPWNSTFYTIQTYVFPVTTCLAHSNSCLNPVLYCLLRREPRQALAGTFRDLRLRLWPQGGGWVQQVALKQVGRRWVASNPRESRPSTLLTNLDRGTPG
Briefly: cAMP accumulation, RXFP4 L118S. As to conditions: HEK293T.
Source text: as §3, §1, §2

Entries after “also recorded” stand apart in the source; their conditions may differ.

Sequence of RXFP4 R208K (Q8TDU9 whole entry R208K, the tested form may be a part): as the sequence (Q8TDU9 whole entry L118S) above, with S118L, R208K counted along it
T1 sequence (Q8TDU9 whole entry D104A): as the sequence (Q8TDU9 whole entry L118S) above, with D104A, S118L counted along it
T2 sequence (Q8TDU9 whole entry V122S): as the sequence (Q8TDU9 whole entry L118S) above, with S118L, V122S counted along it

By EC50 is commonly meant the midpoint of the concentration-response curve. On to `CCOc1cc2c(cc1OC)CCN(C(=O)N1CCOCC1)[C@H]2CCc1c[nH]c2ccc(OC)cc12` [DC591053, (S)-(7-ethoxy-6-methoxy-1-(2-(5-methoxy-1H-indol-3-yl)ethyl)−3,4-dihydroisoquinolin-2(1H)-yl)(morpholino)methanone], for which, on RXFP4 R208K, the “response” value is listed as “more profound reduction for DC591053 than compound 4”. In addition, the EC50 at RXFP4 R208K (1.5 μM forskolin, mean ± S.E.M., n = 3) is 204 nM. For the same compound, the Emax on RXFP4 R208K (mean ± S.E.M.) was determined as 60.43 ± 6.52 % WT. For the same compound, in the assay with human RXFP3, the “cross-reactivity with RXFP3” value is recorded as “neither reacted with related RXFP3; also recorded: without observable cross-reactivity”.
Turning to `CC[C@H](C)[C@@H]1NC(=O)[C@H](Cc2ccc(O)cc2)NC(=O)[C@H]([C@@H](C)CC)NC(=O)[C@H](C(C)C)NC(=O)[C@H]([C@@H](C)O)NC(=O)[C@H](CCCNC(=N)N)NC(=O)[C@H]([C@@H](C)CC)NC(=O)[C@H](Cc2ccc(O)cc2)NC(=O)[C@H](CCC(=O)O)NC(=O)[C@H](CC(C)C)NC(=O)CNC(=O)[C@@H](NC(=O)[C@H](CC(C)C)NC(=O)[C@H](CCCNC(=N)N)NC(=O)[C@@H](NC(=O)[C@H](CO)NC(=O)[C@H](CCC(=O)O)NC(=O)[C@@H](N)CCCCN)C(C)C)CSSC[C@@H]2NC(=O)[C@@H](NC(=O)[C@H](CC(C)C)NC(=O)[C@@H](NC(=O)[C@H](CCC(N)=O)NC(=O)[C@H](CC(C)C)NC(=O)[C@H](CC(=O)O)NC(=O)[C@@H](N)CCC(N)=O)[C@@H](C)O)CSSC[C@H](NC(=O)CNC(=O)[C@H](CC(=O)O)NC(=O)[C@H]([C@@H](C)O)NC2=O)C(=O)N[C@@H](CO)C(=O)N[C@@H](CCSC)C(=O)N[C@@H]([C@@H](C)O)C(=O)N[C@@H](CC(=O)O)C(=O)N[C@@H](CC(C)C)C(=O)N[C@@H](CO)C(=O)N[C@@H](C)C(=O)N[C@@H](CC(C)C)C(=O)N[C@H](C(=O)O)CSSC[C@@H](C(=O)N[C@@H](C)C(=O)N[C@@H](CO)C(=O)N[C@@H](CO)C(=O)N[C@@H](CCCNC(=N)N)C(=O)N[C@@H](Cc2c[nH]c3ccccc23)C(=O)O)NC1=O` [INSL5, insulin-like peptide 5], the half-maximal effective concentration (EC50) is 1.62 nM on RXFP4 D104A and 1.02 nM on RXFP4 V122S (1.5 μM forskolin, n = 3). The Emax stood at 59.09 ± 6.41 % WT at RXFP4 D104A (HEK293T, mean ± S.E.M.) and 45.95 ± 4.97 % WT on RXFP4 V122S. For the same compound, the “response” value at RXFP4 L118S is “inactive”.

(Values after article PMC9886975, “Ligand recognition mechanism of the human relaxin family peptide receptor 4 (RXFP4)” (Nature Communications, 2023).)
